Source: patent publication US10099993B2, “Metabotropic glutamate receptor positive allosteric modulators (PAMS) and uses thereof” (Sanford-Burnham Medical Research Institute, priority 2014, dated 2018)

Experiments:
[1] = In vivo PK in rats, p.o. administration; parameters: species or system rat; settings: 20 mg/kg; for Tmax / Cmax: plasma
[2] = In vivo PK in rats, i.v. administration; parameters: species or system rat; settings: 2 mg/kg; for Cmax / Vd: rat, iv, plasma; for Vd: read-out: Vdss
mGlu2 = mGlu2 (Rattus norvegicus (Rat), UniProt P31421); assay: mGlu2 GIRK thallium flux assay; settings: for EC50: read-out: mGlu2 PAM EC50, test compound, then EC20 glutamate […] later in the presence of thallium; for Emax: read-out: mGlu2 PAM Max;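 as to all read-outs here: Cell-based assay, rate of fluorescence rise right after thallium plus agonist addition read on a kinetic imaging plate reader, normalized to vehicle and maximal agonist control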
mGlu3 = mGlu3 (Rattus norvegicus (Rat), UniProt P31422); assay: mGlu3 GIRK thallium flux assay; settings: for EC50: read-out: mGlu3 PAM EC50, test compound, then EC20 glutamate […] later in the presence of thallium; for Emax: read-out: mGlu3 PAM Max;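 as to all read-outs here: kinetic fluorescence slope read shortly after thallium plus agonist addition, scaled between vehicle and maximal agonist control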
[3] = PAM mode, mean ± SEM, at least three experiments

mGlu2, sequence (P31421 19-872): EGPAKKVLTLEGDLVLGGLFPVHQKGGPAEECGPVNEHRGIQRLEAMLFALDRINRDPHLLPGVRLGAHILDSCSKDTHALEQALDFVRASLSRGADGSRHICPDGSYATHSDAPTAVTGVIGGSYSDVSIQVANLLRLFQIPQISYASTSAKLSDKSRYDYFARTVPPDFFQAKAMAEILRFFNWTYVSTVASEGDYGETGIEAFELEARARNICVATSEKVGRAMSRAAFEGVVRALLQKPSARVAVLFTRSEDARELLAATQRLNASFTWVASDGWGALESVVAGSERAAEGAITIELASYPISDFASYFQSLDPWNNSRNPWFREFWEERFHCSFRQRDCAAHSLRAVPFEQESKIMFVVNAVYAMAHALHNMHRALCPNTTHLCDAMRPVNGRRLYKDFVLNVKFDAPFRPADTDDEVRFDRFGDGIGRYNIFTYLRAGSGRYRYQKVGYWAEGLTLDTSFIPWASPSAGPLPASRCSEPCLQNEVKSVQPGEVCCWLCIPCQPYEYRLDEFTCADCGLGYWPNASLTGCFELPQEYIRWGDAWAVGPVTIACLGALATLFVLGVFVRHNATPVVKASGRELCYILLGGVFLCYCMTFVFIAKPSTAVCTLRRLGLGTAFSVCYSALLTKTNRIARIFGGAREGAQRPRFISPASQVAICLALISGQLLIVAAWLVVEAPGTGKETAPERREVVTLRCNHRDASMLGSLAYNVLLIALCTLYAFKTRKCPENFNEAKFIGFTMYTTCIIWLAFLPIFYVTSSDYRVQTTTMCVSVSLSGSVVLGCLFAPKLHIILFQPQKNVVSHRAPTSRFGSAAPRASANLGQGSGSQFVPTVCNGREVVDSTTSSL
mGlu3, sequence (P31422 23-879): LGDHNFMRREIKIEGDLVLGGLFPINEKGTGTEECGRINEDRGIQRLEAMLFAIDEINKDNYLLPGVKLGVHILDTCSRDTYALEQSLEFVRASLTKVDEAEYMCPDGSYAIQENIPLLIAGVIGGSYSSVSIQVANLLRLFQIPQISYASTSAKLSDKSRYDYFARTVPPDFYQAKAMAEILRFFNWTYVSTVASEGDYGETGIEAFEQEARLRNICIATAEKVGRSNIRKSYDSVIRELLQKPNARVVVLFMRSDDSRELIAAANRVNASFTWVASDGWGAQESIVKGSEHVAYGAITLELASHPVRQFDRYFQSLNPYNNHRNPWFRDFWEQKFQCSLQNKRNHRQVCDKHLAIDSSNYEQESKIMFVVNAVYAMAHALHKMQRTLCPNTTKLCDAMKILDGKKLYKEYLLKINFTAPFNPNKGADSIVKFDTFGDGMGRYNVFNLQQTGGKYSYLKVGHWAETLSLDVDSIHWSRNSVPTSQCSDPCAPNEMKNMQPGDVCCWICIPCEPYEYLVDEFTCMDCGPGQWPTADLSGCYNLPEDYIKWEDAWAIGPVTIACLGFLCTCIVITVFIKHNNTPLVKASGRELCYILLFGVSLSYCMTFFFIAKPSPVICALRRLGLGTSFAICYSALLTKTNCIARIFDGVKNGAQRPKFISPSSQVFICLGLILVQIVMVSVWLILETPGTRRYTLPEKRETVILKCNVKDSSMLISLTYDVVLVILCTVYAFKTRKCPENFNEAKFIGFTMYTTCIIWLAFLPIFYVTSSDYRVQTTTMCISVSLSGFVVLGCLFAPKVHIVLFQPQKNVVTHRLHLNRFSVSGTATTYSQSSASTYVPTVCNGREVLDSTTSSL

| SMILES | EC50 (mGlu2; [3]) | Emax (mGlu2) | EC50 (mGlu3; PAM mode, mean ± SEM) | Emax (mGlu3) | also measured |
| --- | --- | --- | --- | --- | --- |
| Cc1c(OCCCCOc2ccc(F)c(C(=O)O)c2)ccc(C(=O)CC(C)C)c1O [Compound 36, 2-Fluoro-5-(4-(3-hydroxy-2-methyl-4-(3-methylbutanoyl)phenoxy)butoxy)benzoic acid] |  |  |  |  | AUC(0→t) [1]: 720.5 ± 283.4 (μmol/L) min; F, oral bioavailability [1]: 58.2%; Plasma ([1]; harvested at or near the Tmax): 4.23 ± 1.19 µM; Kp ([1]; rat, brain and plasma, po, read-out: Brain:Plasma ratio): 0.06 ± 0.03; Tmax ([1]; rat, po): 0.5 h; Cmax ([1]; rat, po): 12500 nM; AUC(0→t) [2]: 123.7 ± 7.7 (μmol/L)*min; Cmax [2]: 3520 ± 130 nM; Vd [2]: 0.89 ± 0.03 L/kg |
| COc1ccc(C(=O)O)cc1OCCCCOc1ccc(C(=O)CC(C)C)c(O)c1C [Compound 50, 3-{4-[3-Hydroxy-2-methyl-4-(3-methylbutanoyl)phenoxy]butoxy}-4-methoxybenzoic acid] |  |  |  |  | AUC(0→t) [1]: 466.2 ± 105.2 (μmol/L) min; F, oral bioavailability [1]: 60.4%; Tmax ([1]; rat, po): 1.6 h; Cmax ([1]; rat, po): 1050 nM; AUC(0→t) [2]: 77.2 ± 8.0 (μmol/L)*min; Cmax [2]: 2150 ± 140 nM; Vd [2]: 2.87 ± 0.6 L/kg |
| Cc1cc(-c2cccc(COc3ccc(C(=O)CC(C)(C)C)c(O)c3C)c2)ccc1C(=O)O [compound 143, 3′-((4-(3,3-Dimethylbutanoyl)-3-hydroxy-2-methylphenoxy)methyl)-3-methyl-[1,1′-biphenyl]-4-carboxylic acid] | 571 ± 138 nM | 87 ± 11.7% | 3060 ± 624 nM | 78.3 ± 21.1% |  |
| Cc1c(OCc2cccc(-c3ccc(O)c(C(=O)O)c3)c2)ccc(C(=O)CC(C)(C)C)c1O [compound 144, 3′-((4-(3,3-dimethylbutanoyl)-3-hydroxy-2-methylphenoxy)methyl)-4-hydroxy-[1,1′-biphenyl]-3-carboxylic acid] | 232 ± 16 nM | 59.6 ± 4% | 701 ± 176 nM | 46.9 ± 5.6% |  |
| Cc1c(OCc2cccc(-c3cccc(CC(=O)O)c3)c2)ccc(C(=O)CC(C)(C)C)c1O [compound 145, 2-(3′-((4-(3,3-dimethylbutanoyl)-3-hydroxy-2-methylphenoxy)methyl)-[1,1′-biphenyl]-3-yl)acetic acid] | 1360 ± 259 nM | 93.4 ± 11.4% | 3940 ± 1320 nM | 79.1 ± 15% |  |
| Cc1c(OCc2cccc(-c3cc(C(=O)O)cc([N+](=O)[O-])c3)c2)ccc(C(=O)CC(C)(C)C)c1O [compound 146, 3′-((4-(3,3-Dimethylbutanoyl)-3-hydroxy-2-methylphenoxy)methyl)-5-nitro-[1,1′-biphenyl]-3-carboxylic acid] | 564 ± 156 nM | 98.7 ± 5.9% | 2130 ± 812 nM | 74.5 ± 11.7% |  |
| Cc1c(OCc2cccc(-c3ccc(C(=O)O)cc3Cl)c2)ccc(C(=O)CC(C)(C)C)c1O [compound 147, 2-Chloro-3′-((4-(3,3-dimethylbutanoyl)-3-hydroxy-2-methylphenoxy)methyl)-[1,1′-biphenyl]-4-carboxylic acid] | 460 ± 158 nM | 98.6 ± 5.7% | 2280 ± 827 nM | 81.4 ± 9.7% |  |
| Cc1c(OCc2cccc(-c3cccc(C(=O)O)c3)c2)ccc(C(=O)CCC(C)(C)C)c1O [compound 148] | 2110 ± 215 nM |  | 2580 ± 272 nM |  | mGlu2 PAM Max (mGlu2; PAM mode, % Glutamate Max, mean ± SEM, at least three experiments): 100 ± 3.9%; mGlu3 PAM Max (mGlu3; PAM mode, % Glutamate Max, mean ± SEM): 101.7 ± 2.7% |
| Cc1c(OCc2ccnc(-c3cccc(C(=O)O)c3)c2)ccc(C(=O)CC(C)(C)C)c1O [compound 149, 3-(4-((4-(3,3-Dimethylbutanoyl)-3-hydroxy-2-methylphenoxy)methyl)pyridin-2-yl)benzoic acid] | 230 ± 2 nM | 108 ± 1.2% | 203 ± 1 nM | 112 ± 3.8% |  |
| Cc1c(OCc2cncc(-c3cccc(C(=O)O)c3)c2)ccc(C(=O)CC(C)(C)C)c1O [compound 150, 3-(5-((4-(3,3-Dimethylbutanoyl)-3-hydroxy-2-methylphenoxy)methyl)pyridin-3-yl)benzoic acid] | 345 ± 2 nM | 107 ± 2.6% | 345 ± 9 nM | 107 ± 6.3% |  |
| Cc1c(OCc2cccc(-c3cccc(C#N)c3)c2)ccc(C(=O)CC(C)(C)C)c1O [compound 151, 3′-((4-(3,3-Dimethylbutanoyl)-3-hydroxy-2-methylphenoxy)methyl)-[1,1′-biphenyl]-3-carbonitrile] | > 10000 nM | 50.2 ± 7.4% | > 10000 nM | 35.5 ± 3.8% |  |
| Cc1c(OCc2cccc(-c3cccc(-c4nn[nH]n4)c3)c2)ccc(C(=O)CC(C)(C)C)c1O [compound 152, 1-(4-((3′-(2H-Tetrazol-5-yl)-[1,1′-biphenyl]-3-yl)methoxy)-2-hydroxy-3-methylphenyl)-3,3-dimethylbutan-1-one] |  | 103 ± 1.8% |  | 98.9 ± 3.7% |  |
| Cc1c(OCc2cc(-c3cccc(C(=O)O)c3)ccn2)ccc(C(=O)CC(C)(C)C)c1O [compound 153, 3-(2-((4-(3,3-Dimethylbutanoyl)-3-hydroxy-2-methylphenoxy)methyl)pyridin-4-yl)benzoic acid] | 209 ± 3 nM | 106 ± 3.9% | 158 ± 2 nM | 107 ± 5.5% |  |
| Cc1c(OCc2cccc(COc3ccc(C#N)cc3)c2)ccc(C(=O)CC2CCCC2)c1C [compound 154] | > 30000 nM |  | > 30000 nM |  |  |
